The assay relates to articular cartilage of the rabbit knee joint (both femoral condyles), ACLT model. The assay can be described thus: MRI evaluation of articular cartilage damage in the anterior cruciate ligament transection (ACLT) model using ^17O-labeled water. In kind it is in vivo, Japanese white rabbits. How it is done:
An ACLT model was created using 14-week-old male Japanese white rabbits to induce cartilage damage in the knee joint. The rabbits were anesthetized intravenously with pentobarbital (30 mg/kg) and ketamine (50 mg/kg), followed by inhalation anesthesia with isoflurane (1 to 4%) for maintenance anesthesia. The anterior surface of the knee joint on the operative side was shaved, was disinfected with povidone-iodine, and then an analgesic (buprenorphine 0.02 mg/kg) was subcutaneously administered by injection. Skin incision of about 5 cm was placed on the medial side of the patella, and the joint capsule was incised in a similar position. The patella was dislocated laterally, and the knee joint was deeply flexed to expose the anterior cruciate ligament of the femoral intercondylar part, which was separated using a No. 11 scalpel. After washing the inside of the joint with a physiological saline solution, the joint capsule and the skin were sutured using 3-0 nylon thread. Postoperatively, euthanasia was performed if wound infection was observed or in the case of an inability to stand.
It has been reported that in the ACLT model, degeneration of cartilage surface begins at 4 weeks postoperatively and occurs in the entire cartilage layer from 8 weeks postoperatively (Makoto Yoshioka et al. Characterization of a model of osteoarthritis in the rabbit knee. Osteoarthritis and Cartilage, 1996, 4 (2): 87-98), and thus five rabbits were slaughtered and euthanized with pentobarbital (200 mg/kg) each at 4 weeks and 8 weeks postoperatively, and cartilage damage was evaluated by MRI and macroscopically and histologically.
MRI Imaging Using a 3T-MRI apparatus (MAGNETOM Prisma, Siemens), imaging of the rabbit knee joint on the operative side was performed. The affected rabbit limb was disarticulated at the thigh and was fixed at the knee joint extension to avoid the influence of body movement during imaging. A 24G Surflo needle was inserted from the anterior surface of the knee joint through the patellar tendon and was indwelled in the joint. […]

Regarding ^17O-labeled water, for the setting “immediately after administration (fourth imaging), calculated from average T2-weighted signal values in each ROI, 4 weeks postoperatively”, the “change over time in ^17O concentration in ROI 1 and ROI 2 (damaged cartilage region)” value is listed as “showed an increase in the ^17O concentration”. Moreover, the “^17O concentration (^17O map calculated from signal values of T2-weighted image)” value (representative case 4 weeks postoperatively, about 11 minutes after administration (sixth imaging), 0.5 ml saline containing 20-mol % ^17O-labeled water into knee joint of disarticulated limb) is reported as “higher in the region where cartilage damage was observed”. Moreover, where the note is “with administration of ^17O-labeled water, calculated from average T2-weighted signal values in each ROI, 4 weeks postoperatively”, the “change over time in ^17O concentration in ROI 3 and ROI 4 (normal cartilage region)” value is on record as “showed no tendency of an increase in the ^17O concentration”.

The record behind these values is patent US20240066152A1, “CONTRAST AGENT FOR DETECTING CARTILAGE DAMAGE AND METHOD AND PROGRAM FOR EXAMINING CARTILAGE DAMAGE USING SAID CONTRAST AGENT” (NATIONAL UNIVERSITY CORPORATION HOKKAIDO UNIVERSITY, priority 2020, published 2024).
